Assay results from the NIST ThermoML archive (doi:10.1021/je900878j).
± gives the expanded uncertainty stated by the source.

Details: 101.33 kPa, Liquid; for electrical conductivity: Symmetrical Wheatstone bridge; for viscosity: Capillary tube (Ostwald / Ubbelohde) method; for mass density: Vibrating tube method

| SMILES | electrical conductivity (258.15 K) [S/m] | electrical conductivity (268.15 K) [S/m] | electrical conductivity (278.15 K) [S/m] | electrical conductivity (288.15 K) [S/m] | viscosity (293.15 K) [mPa·s] | viscosity (298.15 K) [mPa·s] | electrical conductivity (298.15 K) [S/m] | mass density (298.15 K) [kg/m3] | viscosity (303.15 K) [mPa·s] | electrical conductivity (303.15 K) [S/m] | mass density (303.15 K) [kg/m3] | viscosity (313.15 K) [mPa·s] | electrical conductivity (313.15 K) [S/m] | mass density (313.15 K) [kg/m3] | viscosity (323.15 K) [mPa·s] | electrical conductivity (323.15 K) [S/m] | mass density (323.15 K) [kg/m3] | viscosity (333.15 K) [mPa·s] | electrical conductivity (333.15 K) [S/m] | mass density (333.15 K) [kg/m3] | further results |
| --- | --- | --- | --- | --- | --- | --- | --- | --- | --- | --- | --- | --- | --- | --- | --- | --- | --- | --- | --- | --- | --- |
| CCn1cc[n+](C)c1.F[B-](F)(F)F [1-ethyl-3-methylimidazolium tetrafluoroborate] | 0.2333 ± 0.0019 | 0.4316 ± 0.0034 | 0.7168 ± 0.0057 | 1.096 ± 0.0088 | 44.19 ± 1.2 | 36.17 ± 0.98 | 1.573 ± 0.013 | 1288.8 ± 3.2 | 30.13 ± 0.82 | 1.847 ± 0.015 | 1285 ± 3.2 | 21.77 ± 0.59 | 2.466 ± 0.02 | 1277.5 ± 3.2 | 16.35 ± 0.45 | 3.176 ± 0.025 | 1269.9 ± 3.1 | 12.7 ± 0.35 | 3.97 ± 0.032 | 1262.4 ± 3.1 | electrical conductivity (238.15 K): 0.04188 ± 0.00034 S/m; electrical conductivity (248.15 K): 0.1088 ± 0.00087 S/m; viscosity (269.15 K): 145 ± 4.6 mPa·s; viscosity (273.15 K): 114.1 ± 3.4 mPa·s; viscosity (278.15 K): 86.88 ± 2.5 mPa·s; viscosity (288.15 K): 54.1 ± 1.5 mPa·s; viscosity (343.15 K): 10.12 ± 0.28 mPa·s; electrical conductivity (343.15 K): 4.843 ± 0.039 S/m; viscosity (353.15 K): 8.23 ± 0.22 mPa·s; electrical conductivity (353.15 K): 5.794 ± 0.046 S/m |
| CCn1cc[n+](C)c1.O=S(=O)([N-]S(=O)(=O)C(F)(F)F)C(F)(F)F | 0.1475 ± 0.0012 | 0.2671 ± 0.0021 | 0.4347 ± 0.0035 | 0.6526 ± 0.0052 | 39.07 ± 1.1 | 32.46 ± 0.88 | 0.921 ± 0.0074 | 1519.3 ± 4.5 | 27.3 ± 0.74 | 1.074 ± 0.0086 | 1514.2 ± 4.5 | 19.97 ± 0.54 | 1.414 ± 0.011 | 1504.3 ± 4.4 | 15.17 ± 0.41 | 1.799 ± 0.014 | 1494.3 ± 4.4 | 11.87 ± 0.32 | 2.224 ± 0.018 | 1484.4 ± 4.3 | electrical conductivity (248.15 K): 0.0705 ± 0.00056 S/m; viscosity (263.15 K): 175.1 ± 5.8 mPa·s; viscosity (268.15 K): 128.8 ± 4 mPa·s; viscosity (278.15 K): 75.13 ± 2.1 mPa·s; viscosity (288.15 K): 47.78 ± 1.3 mPa·s; viscosity (343.15 K): 9.54 ± 0.26 mPa·s; electrical conductivity (343.15 K): 2.689 ± 0.021 S/m; viscosity (353.15 K): 7.83 ± 0.21 mPa·s; electrical conductivity (353.15 K): 3.189 ± 0.025 S/m |
| CCn1cc[n+](C)c1.N#CN=C=[N-] [1-ethyl-3-methylimidazolium dicyanamide] | 0.6305 ± 0.005 | 1.035 ± 0.0083 | 1.556 ± 0.012 | 2.189 ± 0.018 | 16.85 ± 0.46 | 14.5 ± 0.39 | 2.928 ± 0.023 | 1100.8 ± 2.3 | 12.62 ± 0.34 | 3.342 ± 0.027 | 1097.5 ± 2.3 | 9.8 ± 0.27 | 4.226 ± 0.034 | 1091 ± 2.3 | 7.83 ± 0.21 | 5.194 ± 0.042 | 1084.4 ± 2.2 | 6.43 ± 0.18 | 6.236 ± 0.05 | 1077.9 ± 2.2 | electrical conductivity (238.15 K): 0.1546 ± 0.0012 S/m; electrical conductivity (248.15 K): 0.3404 ± 0.0027 S/m; viscosity (258.15 K): 75.38 ± 2.1 mPa·s; viscosity (263.15 K): 56.81 ± 1.5 mPa·s; viscosity (268.15 K): 44.24 ± 1.2 mPa·s; viscosity (273.15 K): 35.22 ± 0.96 mPa·s; viscosity (278.15 K): 28.59 ± 0.78 mPa·s; viscosity (288.15 K): 19.81 ± 0.54 mPa·s; viscosity (343.15 K): 5.36 ± 0.15 mPa·s; electrical conductivity (343.15 K): 7.343 ± 0.059 S/m; viscosity (353.15 K): 4.55 ± 0.12 mPa·s; electrical conductivity (353.15 K): 8.509 ± 0.068 S/m |
| CCCCn1cc[n+](C)c1.F[B-](F)(F)F [1-butyl-3-methylimidazolium tetrafluoroborate] | 0.02318 ± 0.00019 | 0.05477 ± 0.00044 | 0.1137 ± 0.00091 | 0.2116 ± 0.0017 | 141.1 ± 4.4 | 107.6 ± 3.2 | 0.3587 ± 0.0029 | 1202.4 ± 2.8 | 83.3 ± 2.3 | 0.4543 ± 0.0036 | 1198.6 ± 2.8 | 52.81 ± 1.4 | 0.6913 ± 0.0055 | 1191.6 ± 2.7 | 35.53 ± 0.97 | 0.9942 ± 0.008 | 1184.5 ± 2.7 | 25.11 ± 0.68 | 1.364 ± 0.011 | 1177.3 ± 2.7 | viscosity (343.15 K): 18.48 ± 0.5 mPa·s; electrical conductivity (343.15 K): 1.8 ± 0.014 S/m; viscosity (353.15 K): 14.06 ± 0.38 mPa·s; electrical conductivity (353.15 K): 2.301 ± 0.018 S/m |
